Assay results: US20220064141A1, “BENZOPYRIDONE HETEROCYCLIC COMPOUND AND USE THEREOF” (BrightGene Bio-Medical Technology Co., Ltd., priority 2019, published 2022)

What was measured:
[1] = Pharmacokinetic experiment in male CD-1 mice (IV and PO); type: in vivo
Experimental: Effect Example 3: Pharmacokinetic Experiment
(1) Compound I-2-2 of the present disclosure prepared in the above Example was used to be formulated into a clear solution (0.3 mg/mL) (2% DMSO+30% PEG 300+2% Tween 80+66% H2O) as a drug for oral administration; and was used to be formulated into a clear solution (0.2 mg/mL) (2% DMSO+30% PEG 300+2% Tween 80+66% H2O) as a drug for intravenous administration.
(2) Male CD-1 mice (three mice in each group, weighing 27 g to 28 g) were provided by Shanghai Slack Laboratory Animal Co., Ltd. The test mice were given an environmental accommodation period of 2 to 4 days before the experiment. The mice were fasted for 8 to 12 hours before administration, and they were provided access to water (2 hours after administration) and food (4 hours after administration).
(3) 12 hours after the mice were fasted but had free access to water, blank plasma at time 0 was taken.
(4) The mice in step 1) were taken; and they were orally (PO) administered 3 mg/kg of the compound to be tested, or intravenously (IV) administered 1 mg/kg of the compound to be tested.
(5) At 5 min, 15 min, 30 min, 1 h, 2 h, 4 h, 8 h, 10 h, and 24 h after oral administration, blood was successively taken from the fundus oculi venous plexus and placed in EP tubes with heparin. After centrifugation at 8000 rpm/min for 5 min, the plasma in upper layer was collected and frozen at −20° C., waiting for LC-MS/MS analysis.
(6) WinNonlin software was used to calculate the pharmacokinetic parameters based on the blood concentration-time data obtained in […]).

[2] = test system: MIAPaCa-2 human-derived pancreatic cancer cells; assay: In-vivo pharmacodynamic experiment, MIAPaCa-2 subcutaneous xenograft in BALB/c nude mice; details: for TGI (%) / TIC / Tumor volumes (mm^3) (Day 23): Day 23; for Tumor volumes (mm^3) (Day 0): baseline
Excerpt: Effect Example 4: In-Vivo Pharmacodynamic Experiment
Purpose of the experiment: To evaluate the anti-tumor effect of the test drug in female BALB/c nude mice model subcutaneously xenografted with MIAPaCa-2 human-derived pancreatic cancer cells.
Experimental operation: BALB/c nude mice, female, 6- to 8-weeks old, weighing about 17.6 g to 21.1 g. Each mouse was subcutaneously inoculated with 5×10^6 MIAPaCa-2 cells (with Matrigel; the volume ratio was 1:1) in the right flank. The administration was initiated when the average tumor volume reached about 100 cubic millimeters. The test compounds were orally administered daily by intragastric injection (6 mice in each group) for a total of 16 or 23 days. Tumor volumes were measured three times a week. The volume was measured in cubic millimeters and calculated by the following formula: tumor volume (mm^3)=½×(a×b^2) (where a represented the long diameter and b represented the short diameter). The anti-tumor efficacy of the compound was evaluated by TGI (%).The calculation formula was as follows: TGI %=(1−T/C)×100% (T and C were the relative tumor volumes (RTV) of a mouse in the treatment group and a mouse in the control group at a specific time point), respectively. Safety was evaluated according to the changes of the body weight of the animals and animal deaths.

[3] = oral daily 30 mg/kg (Day 0 to Day 9) + 15 mg/kg (Day 10 to Day 16)
[4] = oral daily 100 mg/kg (Day 0 to Day 9) + 50 mg/kg (Day 10 to Day 16) + 100 mg (Day 17 to Day 23)

Q: Which F ([1]; PO 3 mg/kg) does the source give for `C=CC(=O)N1CCN(c2c(C#N)c(=O)n(-c3ccccc3C(C)C)c3cc(-c4c(C)ccc5[nH]ncc45)c(Cl)cc23)[C@@H](C)C1` (single isomer, unassigned) [Compound I-2-2] here?
A: 18.9%

Q: And the AUC ([1]; mouse, plasma, IV 1 mg/kg)?
A: 867 ng·h/mL

Q: And the Vd ([1]; mouse, plasma, IV 1 mg/kg)?
A: 1.17 L/kg

Q: What about the clearance ([1]; mouse, plasma, IV 1 mg/kg) of the same compound?
A: 16.7 mL/min/kg

Q: What about the half-life ([1]; mouse, plasma, IV 1 mg/kg) of the same compound?
A: 43.1 min

Q: And the AUC ([1]; mouse, plasma, PO 3 mg/kg)?
A: 479 ng·h/mL

Q: What about the Cmax ([1]; mouse, plasma, PO 3 mg/kg) of the same compound?
A: 220 ng/mL

Q: What about the Tmax ([1]; mouse, plasma, PO 3 mg/kg) of the same compound?
A: 60 min

Q: And the “TGI (%)” value [2, 3]?
A: 36.25%

Q: And the TIC [2, 3]?
A: 63.75

Q: What about the “Tumor volumes (mm^3) (Day 23)” value [2, 3] of the same compound?
A: 438.75 mm^3

Q: What about the “TGI (%)” value [2, 4] of the same compound?
A: 85.02%

Q: What about the TIC [2, 4] of the same compound?
A: 14.98

Q: And the “Tumor volumes (mm^3) (Day 23)” value [2, 4]?
A: 179.60 mm^3

Q: What about the “Tumor volumes (mm^3) (Day 0)” value [2, 3] of the same compound?
A: 100.25 mm^3

Q: And the “Tumor volumes (mm^3) (Day 0)” value [2, 4]?
A: 100.06 mm^3
